Test results: US6083941A, “Inhibition of NMDA receptor activity by pregnenolone sulfate derivatives” (Trustees of Boston University, priority 1998, dated 2000)
Values joined by “and” are separate entries in the source; they are usually repeats but may differ in a detail not shown here. Equal entries are not always repeated. Structures can show the parent of a compound that is named as a salt.

Experiments:
[1] = system: focal cerebral ischemia (MCA occlusion) in rats; experiment: Middle cerebral artery occlusion cerebral ischemia test; type: in vivo; conditions: for cortical infarct volume: treatment delayed until 30 min. after initiation of ischemia
Protocol: Male Wistar rats (200-250 g) were used. Anesthesia was induced with 3% halothane in 70% nitrogen balanced with oxygen. Rats were intubated and artificially ventilated with 2% halothane in a mixture of 30% oxygen and 70% nitrogen. Body temperature was maintained at 37.5° C. during surgery by means of a warming pad with a rectal probe connected to a feedback control unit. Both common carotid arteries (CCA) were isolated, and a loose silk ligature was placed around each artery. A vertical skin incision was made between the left orbit and the auditory canal. Under constant saline irrigation the posterior part of the zygoma was removed and a small opening (2.0/2.5 mm) drilled dorso-rostrally to the foramen ovale. The dura was opened with a microsurgical hook and the brain gently retracted with a small spatula to expose the bifurcation of the internal carotid artery and middle cerebral artery. After permanent ligation of the ipsilateral CCA, the middle cerebral artery (MCA) was coagulated from its origin to the olfactory tract. The contralateral CCA was occluded for a period of 2 hours. A bolus intravenous injection (1 ml) of test compound dissolved in 5% DMSO, 10% 2-hydroxy propyl-β-cyclodextrin in 100 mM sodium phosphate buffer, pH 7.4, was given either immediately after MCA occlusion or 30 minutes after MCA occlusion. An intravenous infusion of the test drug in the same vehicle was initiated immediately after the bolus injection. Twenty-two hours after MCA occlusion rats were euthanized, and the brains were sectioned into 2 mm slices and stained with tetrazoliumred (2,3,5-triphenyl tetrazolium chloride). Areas of brain damage were assessed using an image analyzer with the NIH Image program, and the volumes of cortical and subcortical infarction were estimated by integration of areas in serial.
Pregnanolone hemisuccinate produced significant neuroprotection in the MCAO cerebral ischemia model. […] Focal cerebral ischemia was induced in the left hemisphere of male rats by proximal coagulation of the middle cerebral artery. In addition, the ipsilateral common carotid artery was permanently occluded and the contralateral common carotid artery was occluded for 2 h. Five minutes after initiation of ischemia, rats were injected with an i.v. loading dose of 6.9 mg/kg 5β3αHS, followed by i.v. infusion of 5β3αHS at 6.9 mg/kg/h. […] Control rats were treated with vehicle. Infusion of 5β3αHS was continued for an additional 20 h, at which time the rats were sacrificed, and their brains were sliced and stained with the vital stain 2,3,5 triphenyl tetrazolium Cl.

[2] = system: formalin pain in the mouse; experiment: Formalin paw lick analgesic test; type: in vivo; conditions: mice, i.p., 15 mg/kg
Protocol: Male CD-1 mice (Charles River laboratories, Wilmington, Mass.) weighing 20-25 g were used for the formalin test. Mice were injected intraperitoneally with the test compound dissolved in DMSO or with vehicle. Five minutes later 20 μl of 1% formalin was injected into the hind paw of each mouse. The time spent licking the injected paw was monitored for 25 minutes. The early phase of response was between 0-5 minutes and the late phase response was defined as the response between 5-25 minutes.

kainate receptors = experiment: Whole cell patch clamp, kainate-induced current in cultured chick spinal cord neurons; type: cell-based; conditions: 100 μM steroid; -70 mV; sulfate
Protocol: (§1) Cultures of dissociated spinal cord neurons were prepared as previously described (Farb, D. H., et al., J. Cell Biol., 80:651-661 (1979)). Briefly, the dissociated cells from 7-day chick embryos were plated on collagen-coated 35-mm tissue culture dishes in Eagle's minimum essential medium supplemented with 2.4 mM glutamine, 10% (v/v) heat-inactivated horse serum, 5% (v/v) chick embryo extract and antibiotics. Cultures were maintained in a humidified atmosphere of 5% CO2, 95% air at 37°. Cytarabine (1 μM) was added to the culture medium after 36 hr. of the initial plating to inhibit the proliferation of non-neuronal cells. One day later, this medium was replaced with a similar medium supplemented with 20.5 mM glucose, 19 mM KCl, and 2.5% chick embryo extract. Fresh medium was added twice weekly. Cultured neurons were used in experiments within 2-4 weeks after plating.
(§2) Experiments were carried out in 35-mm tissue culture dishes on the stage of an inverted phase contrast microscope. Whole cell currents were recorded by the whole cell variant of the patch clamp technique (Hamill, O. P., et al., Pfagers Arch. 891:85-100 (1981)). Patch electrodes had tip openings of about […] and resistances of 3-8 M.OMEGA. using an intracellular solution comprised of the following (in mM): 140 CsCl, 11 EGTA, and 10 HEPES (pH adjusted to 7.2 with CsOH). […]

AMPA receptors = experiment: Whole cell patch clamp, AMPA-induced current in cultured chick spinal cord neurons; type: cell-based; conditions: 100 μM steroid; -70 mV; sulfate
Protocol: as §1, §2

[3] = i.v. 6.9 mg/kg loading dose then 6.9 mg/kg/h, started 5 min. after onset of ischemia, versus vehicle

| Compound | sedation ([1]; i.v. 6.9 mg/kg loading dose then 6.9 mg/kg/h) | reduction in cortical infarct volume [1, 3] | reduction in subcortical infarct volume [1, 3] | cortical infarct volume [1] | cortical infarct volume ([1]; listed as Pregnanolone hemisuccinate) | infarction volumes of the cortical and subcortical brain regions ([1]; treatment immediately after cerebral ischemia) | early phase response, formalin paw lick ([2]; 0-5 minutes) | late phase response, formalin paw lick ([2]; 5-25 minutes) | inhibition of the 50 μM kainate-induced current (kainate receptors) | inhibition of the 25 μM AMPA-induced current (AMPA receptors) |
| --- | --- | --- | --- | --- | --- | --- | --- | --- | --- | --- |
| CC(=O)[C@H]1CC[C@H]2[C@@H]3CC[C@@H]4C[C@H](OC(=O)CCC(=O)O)CC[C@]4(C)[C@H]3CC[C@]12C [5β3αHS, 3α-hydroxy-5β-pregnan-20-one hemisuccinate] | Little or no sedation | 47±10% | 26±6% | significantly reduced | significantly decreased | significantly decreased | no effect on the early response | effective in blocking the late phase response |  |  |
| CC(=O)[C@H]1CC[C@H]2[C@@H]3CC[C@@H]4C[C@H](OS(=O)(=O)O)CC[C@]4(C)[C@H]3CC[C@]12C [5β3αS, 3α-hydroxy-5β-pregnan-20-one sulfate] |  |  |  |  |  |  |  |  | 37% and 37.4±4.7% | 29% and 29.0±3.1% |
